Reference: ChEMBL document CHEMBL1201862, “PubChem BioAssay data set” (2004)
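Tested at 5 concentrations; 48 h exposure; 96-well plates; endpoints linearly interpolated, else capped at highest concentration. Abbreviation: GI50, concentration required for 50% inhibition of growth.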 Activity calls are given as the source filed them. Cut-off read from the data, not from the text of the source: active = GI50 up to about 1.1 µM and inactive = higher.

Columns and labels:
Assay in all cases: DTP human tumour cell line panel, 48 h
HT-29 = system: HT-29
SF-539 = system: SF-539
Malme-3M = system: Malme-3M
HOP-62 = system: HOP-62
A549 = system: A549
U-251 = system: U-251
KM12 = system: KM12
SNB-75 = system: SNB-75
RPMI-8226 = system: RPMI-8226
HCT-15 = system: HCT-15
SK-OV-3 = system: SK-OV-3
SK-MEL-5 = system: SK-MEL-5
TK-10 = system: TK-10
RXF 393 = system: RXF 393
IGROV-1 = system: IGROV-1
OVCAR-8 = system: OVCAR-8
M14 = system: M14
SR = system: SR

Structure (SMILES) | GI50 (HT-29) | GI50 (SF-539) | GI50 (Malme-3M) | GI50 (HOP-62) | GI50 (A549) | GI50 (U-251) | GI50 (KM12) | GI50 (SNB-75) | GI50 (RPMI-8226) | GI50 (HCT-15) [µM] | GI50 (SK-OV-3) | GI50 (SK-MEL-5) | GI50 (TK-10) | GI50 (RXF 393) | GI50 (IGROV-1) | GI50 (OVCAR-8) | GI50 (M14) | GI50 (SR)
COc1ccccc1/C=C/C(=O)c1sc(-c2cccnc2)nc1C | > 100 µM (inactive) | > 100 µM (inactive) | > 100 µM (inactive) | > 100 µM (inactive) | > 100 µM (inactive) | > 100 µM (inactive) | 65.2 µM (inactive) | 22.8 µM (inactive) | 26.3 µM (inactive) | > 100 | > 100 µM (inactive) | 47.3 µM (inactive) | > 100 µM (inactive) | 27.9 µM (inactive) | > 100 µM (inactive) | > 100 µM (inactive) | – | –
CCCCCCN(N)C(=O)CC#N | > 100 µM (inactive) | > 100 µM (inactive) | > 100 µM (inactive) | > 100 µM (inactive) | > 100 µM (inactive) | 74.5 µM (inactive) | 23 µM (inactive) | > 100 µM (inactive) | 19.8 µM (inactive) | > 100 | > 100 µM (inactive) | 70.6 µM (inactive) | > 100 µM (inactive) | 16.9 µM (inactive) | > 100 µM (inactive) | > 100 µM (inactive) | > 100 µM (inactive) | –
Cc1cc(O)c2c3c1C(=O)Oc1c(CO)c(O)c(C(=O)O)c(c1O3)C=NN=Cc1c3c(c(CO)c(O)c1C(=O)O)OC(=O)c1c(C)cc(O)c(c1O3)C=NN=C2 | > 100 µM (inactive) | > 100 µM (inactive) | > 100 µM (inactive) | > 100 µM (inactive) | > 100 µM (inactive) | > 100 µM (inactive) | 48.6 µM (inactive) | > 100 µM (inactive) | – | > 100 | > 100 µM (inactive) | 40.2 µM (inactive) | > 100 µM (inactive) | > 100 µM (inactive) | > 100 µM (inactive) | > 100 µM (inactive) | > 100 µM (inactive) | –
N#Cc1c(-c2ccc(Cl)c(Cl)c2)c(-c2ccc(Cl)c(Cl)c2)nn(CC(=O)O)c1=O | 33.3 µM (inactive) | – | > 100 µM (inactive) | > 100 µM (inactive) | 87.7 µM (inactive) | 32.1 µM (inactive) | 43.7 µM (inactive) | 30.5 µM (inactive) | 79.4 µM (inactive) | 28.2 | > 100 µM (inactive) | 34.7 µM (inactive) | > 100 µM (inactive) | 20.1 µM (inactive) | > 100 µM (inactive) | 57 µM (inactive) | 99.8 µM (inactive) | –
Cc1c(C(=O)CC(=O)C(=O)Nc2ccc(Cl)c(Cl)c2)[n+]([O-])c2ccccc2[n+]1[O-] | 29.9 µM (inactive) | 26.9 µM (inactive) | 18.8 µM (inactive) | 64.4 µM (inactive) | 27 µM (inactive) | 26.8 µM (inactive) | 25.1 µM (inactive) | 18.9 µM (inactive) | 20.8 µM (inactive) | 20.5 | 41.6 µM (inactive) | 19.5 µM (inactive) | 46.5 µM (inactive) | 27.4 µM (inactive) | 18.7 µM (inactive) | 17.2 µM (inactive) | 18.1 µM (inactive) | –
N#C/C(=C\c1c(O)cc(O)cc1O)C(N)=O | > 100 µM (inactive) | > 100 µM (inactive) | > 100 µM (inactive) | > 100 µM (inactive) | > 100 µM (inactive) | > 100 µM (inactive) | > 100 µM (inactive) | 36.2 µM (inactive) | > 100 µM (inactive) | > 100 | > 100 µM (inactive) | > 100 µM (inactive) | > 100 µM (inactive) | > 100 µM (inactive) | – | > 100 µM (inactive) | > 100 µM (inactive) | –
CCOC(=O)c1c(N)n(-c2ccccc2)c(=O)n(-c2ccccc2)c1=O | > 100 µM (inactive) | – | > 100 µM (inactive) | – | > 100 µM (inactive) | > 100 µM (inactive) | > 100 µM (inactive) | > 100 µM (inactive) | > 100 µM (inactive) | > 100 | – | > 100 µM (inactive) | > 100 µM (inactive) | > 100 µM (inactive) | > 100 µM (inactive) | > 100 µM (inactive) | > 100 µM (inactive) | > 100 µM (inactive)
Cc1cc(Cl)ccc1NC(=O)/C(=N\NC(C)(C)C)C(C#N)c1nc(-c2ccc([N+](=O)[O-])cc2)cs1 (stereo not given) | > 100 µM (inactive) | > 100 µM (inactive) | > 100 µM (inactive) | > 100 µM (inactive) | > 100 µM (inactive) | > 100 µM (inactive) | > 100 µM (inactive) | > 100 µM (inactive) | > 100 µM (inactive) | > 100 | > 100 µM (inactive) | > 100 µM (inactive) | > 100 µM (inactive) | – | > 100 µM (inactive) | > 100 µM (inactive) | > 100 µM (inactive) | > 100 µM (inactive)
